Assay results as given in article PMC3961306, “Comparison of the Cancer Gene Targeting and Biochemical Selectivities of All Targeted Kinase Inhibitors Approved for Clinical Use” (PLoS ONE, 2014).

Experiments:
Experiment in all cases: Kinase profiling in a biochemical assay panel (mobility shift assays and ELISA), %-inhibition at 1 μM; selectivity entropy
[1] = target: T1, panel of more than 300 wild-type and mutant kinases (313 kinase panel) (Homo sapiens, UniProt P00540)
T1 sequence (P00540 1-346): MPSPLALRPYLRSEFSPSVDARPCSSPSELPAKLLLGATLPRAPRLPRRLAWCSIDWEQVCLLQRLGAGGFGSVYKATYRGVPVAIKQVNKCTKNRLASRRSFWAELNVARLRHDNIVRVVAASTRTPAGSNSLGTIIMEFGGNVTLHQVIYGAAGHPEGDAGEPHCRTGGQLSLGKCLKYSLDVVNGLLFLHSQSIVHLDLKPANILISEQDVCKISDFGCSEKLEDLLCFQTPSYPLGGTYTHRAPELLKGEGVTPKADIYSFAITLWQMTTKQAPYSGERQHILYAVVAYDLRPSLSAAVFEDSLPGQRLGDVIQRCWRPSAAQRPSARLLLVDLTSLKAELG

[2] = target: panel of more than 300 wild-type and mutant kinases (313 kinase panel) (Homo sapiens, UniProt Q13164)
[3] = target: panel of more than 300 wild-type and mutant kinases (313 kinase panel) (Homo sapiens, UniProt Q16644)
[4] = target: T2, panel of more than 300 wild-type and mutant kinases (313 kinase panel) (Homo sapiens, UniProt Q9H093)
T2 sequence (Q9H093 1-628): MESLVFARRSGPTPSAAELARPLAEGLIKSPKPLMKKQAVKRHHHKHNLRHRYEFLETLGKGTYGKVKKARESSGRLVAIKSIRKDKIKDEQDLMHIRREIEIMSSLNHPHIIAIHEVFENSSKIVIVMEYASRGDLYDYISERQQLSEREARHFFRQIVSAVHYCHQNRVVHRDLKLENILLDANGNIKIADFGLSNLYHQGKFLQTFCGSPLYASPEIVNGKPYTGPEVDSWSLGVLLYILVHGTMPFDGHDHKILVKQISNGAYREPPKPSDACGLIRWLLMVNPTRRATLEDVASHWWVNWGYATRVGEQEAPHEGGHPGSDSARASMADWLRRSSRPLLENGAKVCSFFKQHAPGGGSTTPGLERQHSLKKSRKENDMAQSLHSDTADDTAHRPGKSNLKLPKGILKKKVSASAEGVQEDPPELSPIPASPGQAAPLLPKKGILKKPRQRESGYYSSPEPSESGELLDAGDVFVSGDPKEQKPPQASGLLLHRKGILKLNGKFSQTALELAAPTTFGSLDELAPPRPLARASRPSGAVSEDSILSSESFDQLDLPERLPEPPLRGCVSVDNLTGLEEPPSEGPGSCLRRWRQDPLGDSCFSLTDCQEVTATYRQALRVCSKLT

[5] = target: panel of more than 300 wild-type and mutant kinases (313 kinase panel) (Homo sapiens, UniProt P51617)
[6] = target: panel of more than 300 wild-type and mutant kinases (313 kinase panel) (Homo sapiens, UniProt Q13153)
[7] = target: panel of more than 300 wild-type and mutant kinases (313 kinase panel) (Homo sapiens, UniProt O96013)
[8] = target: panel of more than 300 wild-type and mutant kinases (313 kinase panel) (Homo sapiens, UniProt Q9H4A3)
[9] = target: panel of more than 300 wild-type and mutant kinases (313 kinase panel) (Homo sapiens, UniProt Q9Y2H1)
[10] = kinase MAPKAPK3, compound at 1 μM

panel of more than 300 wild-type and mutant kinases (313 kinase panel) (Homo sapiens, UniProt Q9H4A3), sequence (Q9H4A3 whole entry, change not shown): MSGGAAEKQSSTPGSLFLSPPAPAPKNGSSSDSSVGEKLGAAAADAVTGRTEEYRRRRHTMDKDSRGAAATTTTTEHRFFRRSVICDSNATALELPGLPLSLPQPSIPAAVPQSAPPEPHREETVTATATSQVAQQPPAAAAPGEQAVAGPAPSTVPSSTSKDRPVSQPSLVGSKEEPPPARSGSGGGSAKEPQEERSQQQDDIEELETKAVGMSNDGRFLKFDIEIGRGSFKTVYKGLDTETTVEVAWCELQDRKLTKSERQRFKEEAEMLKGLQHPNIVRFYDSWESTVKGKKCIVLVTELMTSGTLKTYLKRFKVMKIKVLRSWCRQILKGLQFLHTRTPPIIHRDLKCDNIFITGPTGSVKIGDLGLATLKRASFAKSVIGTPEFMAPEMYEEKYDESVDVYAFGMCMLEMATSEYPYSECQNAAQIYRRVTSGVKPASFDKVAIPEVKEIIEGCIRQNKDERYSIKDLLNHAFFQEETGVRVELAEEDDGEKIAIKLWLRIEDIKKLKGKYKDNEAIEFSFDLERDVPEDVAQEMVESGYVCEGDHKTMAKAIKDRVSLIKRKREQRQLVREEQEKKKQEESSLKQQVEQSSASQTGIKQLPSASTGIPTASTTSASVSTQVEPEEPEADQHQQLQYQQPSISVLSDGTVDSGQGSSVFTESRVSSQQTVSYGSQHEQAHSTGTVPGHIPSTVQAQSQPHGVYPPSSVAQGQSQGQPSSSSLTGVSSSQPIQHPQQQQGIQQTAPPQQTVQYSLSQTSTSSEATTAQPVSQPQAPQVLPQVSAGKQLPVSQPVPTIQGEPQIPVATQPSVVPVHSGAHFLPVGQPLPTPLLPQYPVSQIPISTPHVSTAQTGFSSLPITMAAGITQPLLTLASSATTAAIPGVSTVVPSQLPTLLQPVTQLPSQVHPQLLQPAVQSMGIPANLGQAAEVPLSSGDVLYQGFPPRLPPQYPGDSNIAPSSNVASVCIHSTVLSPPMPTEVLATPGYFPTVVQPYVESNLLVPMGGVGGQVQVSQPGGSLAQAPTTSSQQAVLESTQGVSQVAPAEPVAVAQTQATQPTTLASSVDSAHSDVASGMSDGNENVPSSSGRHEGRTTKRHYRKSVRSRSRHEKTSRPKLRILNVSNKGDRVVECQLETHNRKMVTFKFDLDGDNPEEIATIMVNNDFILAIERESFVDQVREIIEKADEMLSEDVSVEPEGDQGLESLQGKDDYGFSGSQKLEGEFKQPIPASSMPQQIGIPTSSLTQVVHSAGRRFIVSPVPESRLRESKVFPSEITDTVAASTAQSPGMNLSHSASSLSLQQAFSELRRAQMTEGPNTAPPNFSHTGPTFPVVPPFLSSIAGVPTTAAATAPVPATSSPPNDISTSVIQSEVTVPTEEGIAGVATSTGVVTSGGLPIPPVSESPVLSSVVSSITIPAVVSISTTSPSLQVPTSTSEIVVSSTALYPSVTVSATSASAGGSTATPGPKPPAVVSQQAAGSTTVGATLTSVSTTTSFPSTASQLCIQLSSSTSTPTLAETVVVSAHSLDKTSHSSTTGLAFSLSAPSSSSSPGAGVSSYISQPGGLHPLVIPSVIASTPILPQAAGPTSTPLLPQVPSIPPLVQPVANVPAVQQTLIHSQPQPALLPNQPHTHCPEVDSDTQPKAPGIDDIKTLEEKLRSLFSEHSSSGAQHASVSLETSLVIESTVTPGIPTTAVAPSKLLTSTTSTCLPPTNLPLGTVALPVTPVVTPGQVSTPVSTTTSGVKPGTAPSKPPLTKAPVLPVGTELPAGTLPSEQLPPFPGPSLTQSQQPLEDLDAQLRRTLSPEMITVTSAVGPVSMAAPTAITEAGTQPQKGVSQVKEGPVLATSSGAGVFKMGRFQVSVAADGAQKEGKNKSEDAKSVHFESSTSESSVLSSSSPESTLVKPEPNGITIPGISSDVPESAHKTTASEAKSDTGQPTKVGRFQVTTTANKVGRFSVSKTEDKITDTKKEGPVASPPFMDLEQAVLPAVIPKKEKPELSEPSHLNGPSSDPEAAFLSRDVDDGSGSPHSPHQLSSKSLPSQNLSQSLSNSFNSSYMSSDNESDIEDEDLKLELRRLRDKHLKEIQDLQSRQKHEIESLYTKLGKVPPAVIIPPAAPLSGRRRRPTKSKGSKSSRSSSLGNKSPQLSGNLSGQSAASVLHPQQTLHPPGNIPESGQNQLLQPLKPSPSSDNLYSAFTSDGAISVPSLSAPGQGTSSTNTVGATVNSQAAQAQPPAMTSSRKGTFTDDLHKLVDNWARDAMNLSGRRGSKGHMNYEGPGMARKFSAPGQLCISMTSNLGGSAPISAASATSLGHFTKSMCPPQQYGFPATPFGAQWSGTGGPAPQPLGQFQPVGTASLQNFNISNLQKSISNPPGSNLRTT
panel of more than 300 wild-type and mutant kinases (313 kinase panel) (Homo sapiens, UniProt Q16644), sequence (Q16644 whole entry, change not shown): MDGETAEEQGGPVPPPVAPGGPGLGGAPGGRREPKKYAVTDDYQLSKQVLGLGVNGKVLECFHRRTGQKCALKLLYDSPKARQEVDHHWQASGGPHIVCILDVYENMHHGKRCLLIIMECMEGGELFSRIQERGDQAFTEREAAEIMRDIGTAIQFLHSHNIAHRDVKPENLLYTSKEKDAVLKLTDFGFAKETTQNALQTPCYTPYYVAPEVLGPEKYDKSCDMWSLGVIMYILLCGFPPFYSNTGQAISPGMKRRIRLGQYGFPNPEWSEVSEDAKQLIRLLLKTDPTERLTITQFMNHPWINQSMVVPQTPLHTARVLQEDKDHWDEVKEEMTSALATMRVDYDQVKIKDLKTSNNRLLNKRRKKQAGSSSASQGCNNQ
panel of more than 300 wild-type and mutant kinases (313 kinase panel) (Homo sapiens, UniProt Q9Y2H1), sequence (Q9Y2H1 whole entry, change not shown): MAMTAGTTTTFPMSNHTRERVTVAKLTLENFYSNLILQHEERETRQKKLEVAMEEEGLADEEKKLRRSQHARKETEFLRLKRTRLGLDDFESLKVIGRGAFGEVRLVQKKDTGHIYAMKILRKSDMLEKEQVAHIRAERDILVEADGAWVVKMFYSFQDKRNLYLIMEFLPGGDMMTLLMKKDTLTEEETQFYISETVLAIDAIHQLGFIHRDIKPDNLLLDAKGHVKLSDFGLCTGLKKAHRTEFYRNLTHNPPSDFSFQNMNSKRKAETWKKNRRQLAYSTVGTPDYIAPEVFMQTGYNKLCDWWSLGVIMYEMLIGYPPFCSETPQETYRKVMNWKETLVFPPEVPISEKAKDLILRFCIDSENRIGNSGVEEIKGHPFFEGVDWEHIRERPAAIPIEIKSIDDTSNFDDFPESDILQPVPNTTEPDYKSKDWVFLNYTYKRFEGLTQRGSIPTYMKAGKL

Row | Structure (SMILES) | %-inhibition of MOS ([1]; kinase MOS, 1 μM) [%] | %-inhibition of Erk5 ([2]; kinase Erk5, compound at 1 μM) [%] | %-inhibition of MAPKAPK3 [3, 10] [%] | %-inhibition of NuaK2 ([4]; kinase NuaK2, 1 μM) [%] | %-inhibition of IRAK1 ([5]; kinase IRAK1, compound at 1 μM) [%] | %-inhibition of PAK1 ([6]; kinase PAK1, 1 μM) [%] | %-inhibition of PAK4 ([7]; kinase PAK4, 1 μM) [%] | %-inhibition of WNK1 ([8]; kinase WNK1, compound at 1 μM) [%] | %-inhibition of NDR2 ([9]; kinase NDR2, 1 μM) [%] | %-inhibition of Erk5 ([2]; 1 µM) [%] | %-inhibition of PAK1 ([6]; 1 µM) [%] | %-inhibition of MAPKAPK3 ([3]; 1 µM) [%] | %-inhibition of MOS ([1]; 1 µM) [%] | %-inhibition of PAK4 ([7]; 1 µM) [%] | %-inhibition of WNK1 ([8]; 1 µM) [%] | %-inhibition of NuaK2 ([4]; 1 µM) [%] | %-inhibition of NDR2 ([9]; 1 µM) [%] | %-inhibition of IRAK1 ([5]; 1 µM) [%]
1 | CN(C)C/C=C/C(=O)Nc1cc2c(Nc3ccc(F)c(Cl)c3)ncnc2cc1O[C@H]1CCOC1 [afatinib] | -2 |  |  |  |  |  |  |  |  |  |  |  |  |  |  |  |  | 
2 | COc1cc(Nc2c(C#N)cnc3cc(OCCCN4CCN(C)CC4)c(OC)cc23)c(Cl)cc1Cl [bosutinib] | 44 | 3.35 | -12 | 87 | 12 |  |  |  |  |  |  |  |  |  |  |  |  | 
3 | COc1cc2nccc(Oc3ccc(NC(=O)C4(C(=O)Nc5ccc(F)cc5)CC4)cc3)c2cc1OC [cabozantinib] | 42 | -2 | -9 | 1.63 | 14 | -2.55 | -13 | -1.85 | -6 |  |  |  |  |  |  |  |  | 
4 | C[C@@H](Oc1cc(-c2cnn(C3CCNCC3)c2)cnc1N)c1c(Cl)ccc(F)c1Cl [crizotinib] | 1.25 | 45 | -13 | 87 |  | -4 | -5.56 | -3 | -4.76 |  |  |  |  |  |  |  |  | 
5 | CC(C)(C)c1nc(-c2cccc(NS(=O)(=O)c3c(F)cccc3F)c2F)c(-c2ccnc(N)n2)s1 [dabrafenib] | -12 | 0.144 | -11 | 4.53 | -48 |  | 11 | 1.14 | -2 |  |  |  |  |  |  |  |  | 
6 | Cc1nc(Nc2ncc(C(=O)Nc3c(C)cccc3Cl)s2)cc(N2CCN(CCO)CC2)n1 [dasatinib] |  | 5 |  | 3 | 2.75 |  |  |  | -6 |  |  |  |  |  |  |  |  | 
7 | C#Cc1cccc(Nc2ncnc3cc(OCCOC)c(OCCOC)cc23)c1 [erlotinib] |  |  |  |  |  |  |  |  |  | 21 | 6.37 | 0.621 | 3.64 | -4 | 1.82 | -0.531 | -6 | -1.65
8 | CO[C@H]1C[C@@H]2CC[C@@H](C)[C@@](O)(O2)C(=O)C(=O)N2CCCC[C@H]2C(=O)O[C@H]([C@H](C)C[C@@H]2CC[C@@H](OCCO)[C@H](OC)C2)CC(=O)[C@H](C)/C=C(\C)[C@@H](O)[C@@H](OC)C(=O)[C@H](C)C[C@H](C)/C=C/C=C/C=C/1C [everolimus] | 3.3 | -2.5 | -15 | -0.726 | 12 | -5.39 | -4 | -5 | -8 |  |  |  |  |  |  |  |  | 
9 | O=S(=O)(c1cccc2cnccc12)N1CCCNCC1 [fasudil] | -24 | -3.32 | -14 | 20 | 3.42 |  |  | 3 | 25 |  |  |  |  |  |  |  |  | 
10 | CS(=O)(=O)CCNCc1ccc(-c2ccc3ncnc(Nc4ccc(OCc5cccc(F)c5)c(Cl)c4)c3c2)o1 [lapatinib] | 4.31 |  | -3.64 | -1.19 | 3 |  |  | -0.825 | -6 | -0.8 |  |  |  |  |  |  |  | 
11 | Cc1cn(-c2cc(NC(=O)c3ccc(C)c(Nc4nccc(-c5cccnc5)n4)c3)cc(C(F)(F)F)c2)cn1 [nilotinib] | -3.64 | -3.64 | 2 |  | 8 | -159 |  | -0.88 | -14 |  |  |  |  | -21 |  | -44 |  | 
12 | Cc1ccc(Nc2nccc(N(C)c3ccc4c(C)n(C)nc4c3)n2)cc1S(N)(=O)=O [pazopanib] | -12 | 16 | -6 | 2.81 | 8 | -0.494 | 1.68 | -3.67 | 2.36 |  |  |  |  |  |  |  |  | 
13 | Cc1ccc(C(=O)Nc2ccc(CN3CCN(C)CC3)c(C(F)(F)F)c2)cc1C#Cc1cnc2cccnn12 [ponatinib] | 1.59 | 3.45 |  | -13 | 79 |  |  |  |  |  |  |  |  |  |  |  |  | 
14 | CNC(=O)c1cc(Oc2ccc(NC(=O)Nc3ccc(Cl)c(C(F)(F)F)c3)c(F)c2)ccn1 [regorafenib] | 0.399 | 16 | -15 | -24 | 16 | -8 | -15 | -4 | -8.54 |  |  |  |  |  |  |  |  | 
15 | N#CC[C@H](C1CCCC1)n1cc(-c2ncnc3[nH]ccc23)cn1 [ruxolitinib] | 8 | 6 | -13 | 41 | 50 | -5.62 | 0.371 | -4 | 89 |  |  |  |  |  |  |  |  | 
16 | CCN(CC)CCNC(=O)c1c(C)[nH]c(/C=C2\C(=O)Nc3ccc(F)cc32)c1C [sunitinib] |  | 22 |  |  | 90 |  | 6.58 |  |  |  |  |  |  |  |  |  |  | 
17 | CO[C@H]1C[C@@H]2CC[C@@H](C)[C@@](O)(O2)C(=O)C(=O)N2CCCC[C@H]2C(=O)O[C@H]([C@H](C)C[C@@H]2CC[C@@H](OC(=O)C(C)(CO)CO)[C@H](OC)C2)CC(=O)[C@H](C)/C=C(\C)[C@@H](O)[C@@H](OC)C(=O)[C@H](C)C[C@H](C)/C=C/C=C/C=C/1C [temsirolimus] | -1.43 | -5 | -11 | -5.44 | 13 | -3.8 | -19 | -4.27 | -3.63 |  |  |  |  |  |  |  |  | 
18 | CC(=O)Nc1cccc(-n2c(=O)n(C3CC3)c(=O)c3c(Nc4ccc(I)cc4F)n(C)c(=O)c(C)c32)c1 [trametinib] | 42 | -2.55 | -9 | 9 | 6 |  | -0.675 | -1.42 | -1.48 |  | -1.35 |  |  |  |  |  |  | 
